Test results published in US12522588B2, “Herbicidal compounds” (SYNGENTA CROP PROTECTION AG, priority 2020, dated 2026).

Tests used:
Format in all cases: in vivo
[1] = tested on: Amaranthus retoflexus (AMARE); assay: Post-emergence test, glasshouse; settings: 250 g/ha
Description: (§1) Seeds of a variety of test species are sown in standard soil in pots Amaranthus retoflexus (AMARE), Abutilon theophrasti (ABUTH), Setaria faberi (SETFA), Echinochloa crus-galli (ECHCG), Ipomoea hederacea (IPOHE)). After cultivation for one day (pre-emergence) or after 8 days cultivation (post-emergence) under controlled conditions in a glasshouse (at 24/16° C., day/night; 14 hours light; 65% humidity), the plants are sprayed with an aqueous spray solution derived from the formulation of the technical active ingredient in acetone/water (50:50) solution containing 0.5% Tween 20 (polyoxyethelyene sorbitan monolaurate, CAS RN 9005-64-5). Compounds are applied at 250 g/ha unless otherwise stated. The test plants are then grown in a glasshouse under controlled conditions in a glasshouse (at 24/16° C., day/night; 14 hours light; 65% humidity) and watered twice daily. After 13 days for pre and post-emergence, the test is evaluated for the percentage damage caused to the plant. The biological activities are shown in the following table on a five-point scale (5=81-100%; 4=61-80%; 3=41-60%; 2=21-40%; 1=0-20%).

[2] = tested on: Echinochloa crus-galli (ECHCG); assay: Post-emergence test, glasshouse; settings: 250 g/ha
Description: as §1

[3] = tested on: Ipomoea hederacea (IPOHE); assay: Post-emergence test, glasshouse; settings: 250 g/ha
Description: as §1

Setaria faberi (SETFA) [4] = assay: Post-emergence test, glasshouse; settings: 250 g/ha
Description: as §1

[5] = tested on: Amaranthus retoflexus (AMARE); assay: Pre-emergence test, glasshouse; settings: 250 g/ha, evaluated after 13 days, Table B2
Description: as §1

[6] = tested on: Echinochloa crus-galli (ECHCG); assay: Pre-emergence test, glasshouse; settings: 250 g/ha
Description: as §1

[7] = tested on: Ipomoea hederacea (IPOHE); assay: Pre-emergence test, glasshouse; settings: 250 g/ha
Description: as §1

Setaria faberi (SETFA) [8] = assay: Pre-emergence test, glasshouse; settings: 250 g/ha
Description: as §1

[9] = tested on: Abutilon theophrasti (ABUTH); assay: Post-emergence test, glasshouse; settings: comparative test, 250 g/ha
Description: as §1

[10] = tested on: Abutilon theophrasti (ABUTH); assay: Pre-emergence test, glasshouse; settings: comparative test, 250 g/ha
Description: as §1

[11] = evaluated after 13 days, Table B1
[12] = evaluated after 13 days, Table B2

SMILES | percentage damage caused to the plant, AMARE [1, 11] | percentage damage caused to the plant, ECHCG [2, 11] | percentage damage caused to the plant, IPOHE [3, 11] | percentage damage caused to the plant, SETFA (Setaria faberi (SETFA) [4]; [11]) | percentage damage caused to the plant, AMARE [5] | percentage damage caused to the plant, ECHCG [6, 12] | percentage damage caused to the plant, IPOHE [7, 12] | percentage damage caused to the plant, SETFA (Setaria faberi (SETFA) [8]; [12]) | percentage damage caused to the plant, ABUTH [9] | percentage damage caused to the plant, AMARE ([1]; comparative test) | percentage damage caused to the plant, ECHCG ([2]; comparative test) | percentage damage caused to the plant, IPOHE ([3]; comparative test) | percentage damage caused to the plant, SETFA (Setaria faberi (SETFA) [4]; comparative test) | percentage damage caused to the plant, LABUTH [10] | percentage damage caused to the plant, ECHCG ([6]; comparative test) | percentage damage caused to the plant, IPOHE ([7]; comparative test) | percentage damage caused to the plant, SETFA (Setaria faberi (SETFA) [8]; comparative test)
Fc1cnc(Oc2cc(C(F)(F)F)nn2-c2ccc(C(F)(F)F)cc2)nc1 [Compound 1.021] | 4 (4=61-80%) | 5 (5=81-100%) | 4 (4=61-80%) | 4 (4=61-80%) | 5 (5=81-100%) | 5 (5=81-100%) | 2 (2=21-40%) | 5 (5=81-100%) |  |  |  |  |  |  |  |  | 
Cc1ncc(-n2nc(C(F)(F)F)cc2Oc2ncc(Cl)cn2)cn1 [Compound 1.022, 5-chloro-2-[2-(2-methylpyrimidin-5-yl)-5-(trifluoromethyl)pyrazol-3-yl]oxy-pyrimidine] | 5 (5=81-100%) | 4 (4=61-80%) | 1 (1=0-20%) | 4 (4=61-80%) | 5 (5=81-100%) | 4 (4=61-80%) | 1 (1=0-20%) | 5 (5=81-100%) |  |  |  |  |  |  |  |  | 
FC(F)Oc1ccc(-n2nc(C(F)(F)F)cc2Oc2ncc(Cl)cn2)cc1 [Compound 1.028] | 4 (4=61-80%) | 2 (2=21-40%) | 1 (1=0-20%) | 2 (2=21-40%) | 2 (2=21-40%) | 1 (1=0-20%) | 1 (1=0-20%) | 2 (2=21-40%) |  |  |  |  |  |  |  |  | 
Cc1ccc(-n2nc(C(F)(F)F)cc2Oc2ncc(Cl)cn2)cc1 [Compound 1.029] | 4 (4=61-80%) | 2 (2=21-40%) | 2 (2=21-40%) | 2 (2=21-40%) | 3 (3=41-60%) | 4 (4=61-80%) | 1 (1=0-20%) | 4 (4=61-80%) |  |  |  |  |  |  |  |  | 
Fc1ccccc1-n1nc(C(F)(F)F)cc1Oc1ncc(Cl)cn1 [Compound 1.033] | 3 (3=41-60%) | 1 (1=0-20%) | 1 (1=0-20%) | 1 (1=0-20%) | 2 (2=21-40%) | 1 (1=0-20%) | 1 (1=0-20%) | 1 (1=0-20%) |  |  |  |  |  |  |  |  | 
FC(F)(F)c1ccc(-n2nc(C(F)(F)F)cc2Oc2ncc(Br)cn2)cc1 [Compound 1.036, 5-bromo-2-[5-(trifluoromethyl)-2-[4-(trifluoromethyl)phenyl]pyrazol-3-yl]oxy-pyrimidine] | 4 (4=61-80%) | 1 (1=0-20%) | 2 (2=21-40%) | 1 (1=0-20%) | 3 (3=41-60%) | 4 (4=61-80%) | 1 (1=0-20%) | 4 (4=61-80%) |  |  |  |  |  |  |  |  | 
Cc1cc(Oc2ncc(Cl)cn2)n(-c2ccc(C(F)(F)F)cc2)n1 [Compound C1, reference compound] |  |  |  |  |  |  |  |  | 2 (2=21-40%) | 4 (4=61-80%) | 1 (1=0-20%) | 1 (1=0-20%) | 2 (2=21-40%) | 1 (1=0-20%) | 1 (1=0-20%) | 1 (1=0-20%) | 2 (2=21-40%)
